Assay results taken from publication PMC11656837, “pH-Responsive Peptide Nanoparticles Deliver Macromolecules to Cells via Endosomal Membrane Nanoporation” (ACS Nano, 2024).

Columns and labels:
[1] = tested on: Chinese Hamster Ovary (CHO) cells; experiment: Cytosolic delivery of yellow fluorescent protein (confocal microscopy); type: cell-based; details: 25 μM peptide, 3.5 μM external YFP, 37 °C
Experimental: To validate the dextran delivery experiments, we also delivered two separate fluorescent proteins of ∼27 kDa molecular weight to the cytosol of two different cell lines using C16-D-pHD108 (see Figure 7). HeLa cells were incubated overnight with 10 μM green fluorescent protein (GFP), and Chinese Hamster Ovary (CHO) cells were incubated overnight with 3.5 μM yellow fluorescent protein (YFP), with and without 25 μM C16-D-pHD108. Just before imaging, external GFP and YFP were washed off and replaced with TAMRA-dextran (red) or fluorescent protein mTurquoise (blue), respectively, to mark the cell boundaries and extracellular spaces. […] These cells, especially those incubated with the higher 10 μM concentration of GFP, show endosomes with entrapped FP, just as we observed for dextran delivery. […] The apparent nuclear concentration of GFP in cells incubated with GFP but no peptide is indistinguishable from the background. With an external concentration of 3.5 μM, the YFP concentration delivered to the cell cytosol ranges from 1 to 3 μM, with a median of about 1.2 μM or 35% of the external concentration. The apparent cytosolic concentration of YFP in cells incubated with YFP but no peptide is indistinguishable from the background. We also performed YFP delivery experiments at a 4 h time point, Supplemental Figure S4. […]
For fluorescent protein or fluorescein-(Fab)2 fragment delivery, HeLa cells were incubated at 37 °C overnight in the presence of GFP with and without C16-D-pHD108 and CHO cells were incubated at 37 °C overnight with YFP in the presence and absence of C16-D-pHD108. […] Quantitation of delivered protein was performed by comparing measured intensities from microscopy images of standard protein solutions of known concentrations. […]
E. YFP intensities from the nuclei and cytosol of the cells in panels A,B and C,D. The dotted lines are the intensities of standard reference solution of media only and 3.5 µM YFP measured at the same time under identical conditions. […]

HeLa cells = details: 40 nM PE-III
Text: For this, we use PE-III, the third domain of the Pseudomonas exotoxin. This 25 kDa enzyme ADP ribosylates ribosomal elongation factor 2, thereby blocking protein synthesis and triggering apoptosis. […] Thus, apoptosis will occur only if an exogenous agent, such as a peptide, enables cytosolic delivery of the 4 × 3 nm PE-III protein, Figure 2A.
Comparison of peptide concentration midpoints requires a constant concentration of PE-III in each experiment. […] The major disadvantage of the PE-III assay to detect delivery is that only a few molecules of active PE-III delivered to the cytosol[36] will produce a positive result. To partly mitigate this effect in the assays described below, we use a constant 40 nM PE-III. At such a low concentration, each endosome will contain an average of fewer than one PE-III molecule if we assume passive entrapment of the cargo (see the Supporting Information).
The no treatment (no tx) control group contained cells but no peptide or PE-III enzyme. The Alamar Blue intensity of this group was defined as 100% viability. Media alone without cells was defined as 0% viability.
The concentration range used for each peptide was adjusted according to preliminary measurements of activity in this assay. We assessed PE-III delivery by measuring cell viability using Alamar Blue.
Fifteen thousand HeLa cells were seeded in a clear bottom, black-walled 96-well plate overnight at 37 °C with 5% CO2 in complete media (DMEM + phenol red +10% FBS + antimycotic/antibiotic + nonessential amino acids). Cells were then washed once in PBS and treated with PE-III and peptide in serum-free media without phenol red, with a 50 μL total volume. After a 2-day incubation with treatment, 50 μL of 10% Alamar blue reagent diluted in serum-free media was added directly to each well (5% Alamar blue final) and incubated for 1.5 h at 37 °C. The plate was then read at 550 equiv/590 em on a Biotek plate reader. Untreated cells were used as a negative control, and MelP5-treated cells served as a positive control.

[2] = Experimental: This was done by incubating 50 μM peptide under each experimental condition for 60 min, followed by centrifugation at 1400g to remove large aggregates, and by subsequent centrifugation at 11,000g to remove intermediate aggregates. Peptide concentration in solution before and after centrifugation was determined by reverse phase HPLC.
Dried peptides were reconstituted in 50 μL of PBS at pH 7 or at pH 5. The solutions were bath-sonicated briefly and incubated at room temperature for 30 min. Three aliquots of each sample were removed for analysis: one before centrifugation, one after centrifugation for 5 min at 1400g, and one after centrifugation for 10 min at 11,000g. These aliquots were diluted and analyzed by reverse phase HPLC. The integrated peak area of the tryptophan fluorescence peak was determined for each sample.

With `CCCCCCCCCCCCCCCC(=O)NCC(=O)N[C@@H](C(=O)NCC(=O)N[C@H](CCC(=O)O)C(=O)N[C@@H](C(=O)N[C@H](CC(C)C)C(=O)N[C@H](Cc1c[nH]cn1)C(=O)N[C@H](CCC(=O)O)C(=O)N[C@H](CC(C)C)C(=O)N[C@H](C)C(=O)N[C@H](CCC(=O)O)C(=O)NCC(=O)N[C@H](CC(C)C)C(=O)N1CCC[C@@H]1C(=O)N[C@H](CCC(=O)O)C(=O)N[C@H](CC(C)C)C(=O)N[C@H](CCC(N)=O)C(=O)N[C@H](CCC(=O)O)C(=O)N[C@H](Cc1c[nH]c2ccccc12)C(=O)N[C@@H](C(=O)N[C@H](Cc1c[nH]cn1)C(=O)N[C@H](C)C(=O)N[C@H](C)C(=O)N[C@H](CCC(N)=O)C(=O)N[C@H](CCC(N)=O)C(=O)N[C@H](CC(C)C)C(N)=O)[C@H](C)CC)C(C)C)[C@H](C)CC` [C16-D-pHD108] the “YFP delivered to cytosol, median as percent of the external solution” value ([1]; 4 h) was “about 13%”, the “YFP concentration delivered to cell cytosol, median” value ([1]; overnight) was “about 1.2 μM” and the “YFP delivered to cytosol, median as percent of the external concentration” value ([1]; overnight) was ~35%. The “cells that undergo apoptosis” value (HeLa cells; 10 μM peptide) was > 98%, the “fold increase in activity over unmodified pHD108” value (HeLa cells; from EC50 in HeLa) was 74 fold and the EC50 (HeLa cells; read-out: EC50 (peptide concentration midpoint for PE-III-dependent apoptosis), HeLa, serum-free media, 48 h, 37 °C, Alamar Blue) was 1900 nM. The “solubility after dissolving at pH 7 and decreasing to pH 5” value ([2]; 50 μM, pH 7 then pH 5, centrifugation, reverse phase HPLC) was “became insoluble”, the “solubility at pH 5” value ([2]; from dried peptide, 50 μM in PBS pH 5, centrifugation 1400g then 11,000g, reverse phase HPLC) was “almost none of the peptides went into solution” and the “solubility and stability to centrifugation at pH 7” value ([2]; from dried peptide, 50 μM in PBS pH 7, bath sonication, 60 min, room temperature, centrifugation 1400g then 11,000g, reverse phase HPLC (Trp fluorescence peak area)) was “remains soluble at pH 7 and is not removed by centrifugation”. The “solubility in buffer / PBS at pH 7” value ([2]; pH 7, buffer or PBS) was “soluble in PBS and remained in solution at pH 7 for days”.
